Experimental data: patent US8110398B2, “Stable cell lines and methods for evaluating gastrointestinal absorption of chemicals” (Absorption Systems Group, LLC, priority 2006, dated 2012)

How the values were obtained:
[1] = tested on: C2BBE1 cells; conditions: reference values; cited from earlier work
[2] = reference values; cited from earlier work
[3] = molecular target: P-gp (Homo sapiens, UniProt P08183); test: Calcein-AM assay; conditions: for RFU/μg of protein: 30 minutes
Protocol: Calcein-AM assay. To determine activity of the P-gp protein, calcein-AM assays were conducted.
To determine the P-gp activity, cells were plated in 96-well tissue culture plates and cultured for 48. After 48 hours, cell culture media was removed and the cells were washed with phosphate buffered saline solution (PBS). After washing, cells were incubated with 1 μM calcein-AM for 30 minutes. […] After incubation with calcein-AM, the cells were rinsed with fresh control buffer and fluorescence was measured using a Fluo-star fluorescence plate reader (BMG Lab Technologies, N.C.) with excitation and emission filters set at wavelengths of 485 nm and 538 nm, respectively.
Calcein-AM efflux is not mediated by BCRP. Therefore, any increase in calcein-AM uptake by the cells can be attributed to P-gp inhibition. The cells were plated in 96-well tissue culture plates and cultured for 48 hours. After 48 hours, cell culture media was removed and the cells were washed with phosphate buffered saline solution (PBS). After washing, cells were incubated with 1 μM calcein-AM for 30 minutes. […] After incubation with calcein-AM, the cells were rinsed with fresh control buffer and fluorescence was measured using a Fluo-star fluorescence plate reader (BMG Lab Technologies, N.C.) with excitation and emission filters set at wavelengths of 485 nm and 538 nm, respectively. The assay was carried out after each clone had been passaged 9 times.

[4] = tested on: MRP2 mRNA; test: RT-PCR of MRP2 mRNA expression in transduced C2BBe1 cells; type: cell-based, human; conditions: for Percent decrease in ratio compared to control: MRP2 mRNA vs vector control; for Ratio of MRP2 band intensity to β-actin band intensity: RT-PCR, C2BBe1 cells, passages 2 to 5
Protocol: (§1) RT-PCR. Total RNA was extracted from cells according to the following protocol. Cells were harvested from culture by centrifugation, resuspended in 1 ml of TRIzol® reagent (Invitrogen, Carlsbad, Calif.), and incubated at room temperature for 5 minutes with gentle shaking. The suspension was transferred to a 1.5 ml centrifuge tube, to which 200 μl of Chloroform was added, followed by an additional 5 minute incubation period with shaking. After incubation, the suspension was centrifuged at 12,000×g for 12 minutes at 4° C. The supernatant was transferred to a fresh, sterile 1.5 ml centrifuge tube, and supplemented with 0.5 ml of 2-propanaol per 1 ml of TRIzol reagent, and incubated for 10 minutes at room temperature. The mixture was then centrifuged at 12,000×g for an additional 12 minutes at 4° C. After centrifugation, the supernatant was removed and the pellet was washed with 75% ethanol. The sample was re-centrifuged at 7500×g for 5 minutes at 4° C., followed by the removal of the supernatant. The pellet was allowed to air dry at room temperature. The pellet was resuspended in pre-warmed (55° C.) nuclease-free water, and incubated at 55° C. for 10 minutes. RNA yield and purity were quantified by absorbance at 260 nm and 280 nm.
(§2) RT-PCR mixtures were set up as 50 μl samples containing buffer, 1-2 μg of RNA, 10 μM of Forward primer, 10 μM of Reverse primer, Taq polymerase, and water. Primers to amplify human P-gylcoprotein were as follows: P-gp Forward 5′-[…]-3′ (SEQ ID NO: 9); and, P-gp Reverse 5′-[…]-3′ (SEQ ID NO: 10). Primers to amplify human MRP2 were as follows: MRP2 Forward 5′-[…]-3′ (SEQ ID NO: 11); and, MRP2 Reverse 5′-[…]-3′ (SEQ ID NO: 12). Primes to amplify human BCRP were as follows: BCRP Forward 5′-[…] 3′ (SEQ ID NO: 13); and, BCRP Reverse 5′-[…] 3′ (SEQ ID NO: 14). Human β-actin was amplified in parallel as a positive control using the following primers: β-actin Forward 5′-[…]-3′ (SEQ ID NO: 15); and, β-actin Reverse 5′-[…]-3′ (SEQ ID NO: 16).
(§3) The PCR cycles proceeded in a programmable thermocycler with the following parameters: cDNA synthesis, 1 cycle, 55° C. for 30 minutes; denaturation, 1 cycle, 94° C. for 2 minutes; PCR amplification, 40 cycles of 94° C. for 15 seconds, 62° C. for 30 seconds, 72° C. for 1 minute; and, final extension, 1 cycle, 72° C. for 5 minutes. Amplification was confirmed by electrophoresis in 2% agarose gels.
For this example, gene expression of MRP2 in C2BBe1 cells was determined by observing both the MRP2 mRNA content as well as the protein content of the cells following viral transduction. To examine mRNA content, total cellular RNA was harvested and amplified by RT-PCR using primers specific to the MRP2 gene (SEQ ID NO: 11 and 12). The RT-PCR products were then analyzed after separation by electrophoresis on a 2% agarose gel.
Vector control (VC) cells were prepared from cells transducted with lentiviruses encoding a non-interfering nucleic acid sequence (SEQ ID NO 27), as described in Example 7. Methods were described in Example 1. […]

[5] = tested on: P-gp mRNA; test: RT-PCR of P-gp mRNA expression in transduced C2BBe1 cells; type: cell-based, human; conditions: RT-PCR, shRNA/P-gp clone cells
Protocol: as §1, §2, §3
Gene expression of P-gp in knockdown cells (shRNA/P-gp clones #83, 84, 85, 86, and 87) was determined by observing P-gp mRNA content, protein content and protein functional activity. RT-PCR was used to determine the expression of the P-gp mRNA. Total cellular RNA was harvested and amplified using primers specific to P-gp mRNA. RT-PCR products were then separated by electrophoresis on a 2% agarose gel. It was determined that 4 of the 5 shRNA/P-gp clone cells contained substantially less P-gp mRNA than control C2BBe1 cells (FIG. 2, top panel). β-actin was amplified, in parallel, as a positive control, and its expression was not affected by the interfering shRNA (FIG. 2, bottom panel).

P-gp, sequence (P08183 whole entry): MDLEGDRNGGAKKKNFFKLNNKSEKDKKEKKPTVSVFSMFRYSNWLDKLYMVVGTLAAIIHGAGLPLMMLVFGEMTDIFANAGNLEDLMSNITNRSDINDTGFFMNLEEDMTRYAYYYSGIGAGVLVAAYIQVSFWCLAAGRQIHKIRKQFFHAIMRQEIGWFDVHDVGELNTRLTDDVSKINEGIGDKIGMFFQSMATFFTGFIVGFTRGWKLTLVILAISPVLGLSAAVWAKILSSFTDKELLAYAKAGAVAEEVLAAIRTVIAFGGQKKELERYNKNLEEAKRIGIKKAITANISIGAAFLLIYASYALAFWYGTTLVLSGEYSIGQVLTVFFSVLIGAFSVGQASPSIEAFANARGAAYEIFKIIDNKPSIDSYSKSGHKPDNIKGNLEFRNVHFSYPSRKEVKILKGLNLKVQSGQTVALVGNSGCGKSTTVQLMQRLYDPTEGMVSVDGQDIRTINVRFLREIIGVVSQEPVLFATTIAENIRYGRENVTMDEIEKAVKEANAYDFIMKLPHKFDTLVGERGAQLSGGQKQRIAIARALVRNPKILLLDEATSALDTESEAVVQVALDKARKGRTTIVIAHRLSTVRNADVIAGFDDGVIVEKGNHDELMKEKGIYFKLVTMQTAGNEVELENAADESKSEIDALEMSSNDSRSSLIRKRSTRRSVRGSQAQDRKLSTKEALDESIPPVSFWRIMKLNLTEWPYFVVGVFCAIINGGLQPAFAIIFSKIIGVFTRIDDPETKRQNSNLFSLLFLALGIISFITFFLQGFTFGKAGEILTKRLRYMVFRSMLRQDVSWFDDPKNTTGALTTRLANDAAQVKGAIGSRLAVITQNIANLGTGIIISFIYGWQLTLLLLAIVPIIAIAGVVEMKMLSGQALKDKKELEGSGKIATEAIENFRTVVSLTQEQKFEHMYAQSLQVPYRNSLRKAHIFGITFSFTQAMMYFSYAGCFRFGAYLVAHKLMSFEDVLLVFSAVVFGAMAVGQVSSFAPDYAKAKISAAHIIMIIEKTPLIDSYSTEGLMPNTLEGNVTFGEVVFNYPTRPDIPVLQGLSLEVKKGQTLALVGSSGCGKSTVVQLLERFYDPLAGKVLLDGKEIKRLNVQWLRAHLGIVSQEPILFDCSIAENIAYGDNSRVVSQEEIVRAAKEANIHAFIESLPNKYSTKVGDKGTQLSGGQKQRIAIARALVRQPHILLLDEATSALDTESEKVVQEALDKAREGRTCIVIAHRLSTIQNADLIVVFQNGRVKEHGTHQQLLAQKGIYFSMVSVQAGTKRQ

1-Deamino-8-D-arginine
Papp in C2BBE1 cells [1]: 0.13 10^−6 cm/s

CC(=O)Oc1ccccc1C(=O)O [Acetylsalicylic acid]
% Absorption in human [2]: 100% | Papp in C2BBE1 cells [1]: 2.4 10^−6 cm/s

C=CCc1ccccc1OCC(O)CNC(C)C (stereo not drawn) [Alprenolol]
% Absorption in human [2]: 93% | Papp in C2BBE1 cells [1]: 40.5 10^−6 cm/s

NC(=O)CC[C@@H]1NC(=O)[C@H](Cc2ccccc2)NC(=O)[C@H](Cc2ccc(O)cc2)NC(=O)[C@@H](N)CSSC[C@@H](C(=O)N2CCC[C@H]2C(=O)N[C@@H](CCCN=C(N)N)C(=O)NCC(N)=O)NC(=O)[C@H](CC(N)=O)NC1=O [Arginine-vasopressin]
% Absorption in human [2]: 0% | Papp in C2BBE1 cells [1]: 0.14 10^−6 cm/s

C[C@]12C[C@H](O)[C@H]3[C@@H](CCC4=CC(=O)CC[C@@]43C)[C@@H]1CC[C@@H]2C(=O)CO [Corticosterone]
% Absorption in human [2]: 100%

C[C@@H]1C[C@H]2[C@@H]3CCC4=CC(=O)C=C[C@]4(C)[C@@]3(F)[C@@H](O)C[C@]2(C)[C@@]1(O)C(=O)CO [Dexamethasone]
% Absorption in human [2]: 100%

CCOC(=O)C1=C(C)NC(C)=C(C(=O)OC)C1c1cccc(Cl)c1Cl (stereo not drawn) [Felodipine]
Papp in C2BBE1 cells [1]: 22.7 10^−6 cm/s

OC[C@@H](O)[C@@H](O)[C@H](O)[C@H](O)CO [Mannitol]
% Absorption in human [2]: 16% | Papp in C2BBE1 cells [1]: 0.18 10^−6 cm/s

COCCc1ccc(OCC(O)CNC(C)C)cc1 (stereo not drawn) [Metoptolol]
Papp in C2BBE1 cells [1]: 27 10^−6 cm/s

O=C(O)c1cc(/N=N/c2ccc(O)c(C(=O)O)c2)ccc1O [Olsalazine]
% Absorption in human [2]: 2% | Papp in C2BBE1 cells [1]: 0.11 10^−6 cm/s

CC(=O)Nc1ccc(OCC(O)CNC(C)C)cc1 (stereo not drawn) [Practolol]
Papp in C2BBE1 cells [1]: 0.9 10^−6 cm/s

CC(C)NCC(O)COc1cccc2ccccc12 (stereo not drawn) [Propranolol]
Papp in C2BBE1 cells [1]: 41.9 10^−6 cm/s

CC(C)(C)NCC(O)c1cc(O)cc(O)c1 (stereo not drawn) [Terbutaline]
% Absorption in human [2]: 73% | Papp in C2BBE1 cells [1]: 0.38 10^−6 cm/s

C[C@]12CC[C@H]3[C@@H](CCC4=CC(=O)CC[C@@]43C)[C@@H]1CC[C@@H]2O [Testosterone]
% Absorption in human [2]: 100%

CC(=O)CC(c1ccccc1)c1c(O)c2ccccc2oc1=O (stereo not drawn) [Warfarin]
Papp in C2BBE1 cells [1]: 38.3 10^−6 cm/s

CC(=O)OCOC(=O)CN(CC(=O)OCOC(C)=O)Cc1cc2c(cc1OC(C)=O)Oc1cc(OC(C)=O)c(CN(CC(=O)OCOC(C)=O)CC(=O)OCOC(C)=O)cc1C21OC(=O)c2ccccc21 [calcein-AM]
Normalized Mean Fluorescence ([3]; Vector Control cells): 23.92 | Normalized Mean Fluorescence in the Presence of CSA ([3]; Vector Control cells): 62.86 | Normalized Mean Fluorescence in the Presence of CSA ([3]; shRNA/BCRP clone #801 cells, passage 20): 72.31 | Normalized Mean Fluorescence ([3]; shRNA/BCRP clone #801 cells, passage 20, normalized for total protein): 5.08 | % decrease of Calcein-AM compared to vector control ([3]; shRNA/BCRP clone cell #798): 0.33% | RFU/μg of protein ([3]; shRNA/BCRP clone cell #798, 1 μM calcein-AM, passaged 9 times): 10.13 RFU/μg of protein | % decrease of Calcein-AM compared to vector control ([3]; shRNA/BCRP clone cell #799): 31.18% | RFU/μg of protein ([3]; shRNA/BCRP clone cell #799, 1 μM calcein-AM, passaged 9 times): 6.99 RFU/μg of protein | % decrease of Calcein-AM compared to vector control ([3]; shRNA/BCRP clone cell #800): 58.07% | RFU/μg of protein ([3]; shRNA/BCRP clone cell #800, 1 μM calcein-AM, passaged 9 times): 4.26 RFU/μg of protein | % decrease of Calcein-AM compared to vector control ([3]; shRNA/BCRP clone cell #801): 89.37% | RFU/μg of protein ([3]; shRNA/BCRP clone cell #801, 1 μM calcein-AM, passaged 9 times): 1.08 RFU/μg of protein | % decrease of Calcein-AM compared to vector control ([3]; shRNA/BCRP clone cell #802): 33.42% | RFU/μg of protein ([3]; shRNA/BCRP clone cell #802, 1 μM calcein-AM, passaged 9 times): 6.76 RFU/μg of protein | RFU/μg of protein ([3]; vector control cells, 1 μM calcein-AM): 10.16 RFU/μg of protein

shRNA/MRP2 #3: interfering RNA to MRP2, SEQ ID NO: 17, lentivirally transduced into C2BBe1 cells; clone #3 (CCGGCGTGTATAAATCCAGGACCAACTCGAGTTGGTCCTGGATTTATACACGTTTTTG; listed as Homo Sapiens)
Percent decrease in ratio compared to control [4]: 15.12% | Ratio of MRP2 band intensity to β-actin band intensity [4]: 0.57

shRNA/MRP2 #4: interfering RNA to MRP2, SEQ ID NO: 18, lentivirally transduced into C2BBe1 cells; clone #4 (CCGGCCTGGTGGATAGCAACAATATCTCGAGATATTGTTGCTATCCACCAGGTTTTTG; listed as Homo Sapiens)
Percent decrease in ratio compared to control [4]: 15.31% | Ratio of MRP2 band intensity to β-actin band intensity [4]: 0.57

shRNA/MRP2 #5: interfering RNA to MRP2, SEQ ID NO: 19, lentivirally transduced into C2BBe1 cells; clone #5 (CCGGGCATCTGAAGTCCCTGAGAAACTCGAGTTTCTCAGGGACTTCAGATGCTTTTTG; listed as Homo Sapiens)
Percent decrease in ratio compared to control [4]: 6.04% | Ratio of MRP2 band intensity to β-actin band intensity [4]: 0.63

shRNA/MRP2 #6: interfering RNA to MRP2, SEQ ID NO: 20, lentivirally transduced into C2BBe1 cells; clone #6 (CCGGGCCGGTGGTCAGATTATCATTCTCGAGAATGATAATCTGACCACCGGCTTTTTG; listed as Homo Sapiens)
Percent decrease in ratio compared to control [4]: −7.59% | Ratio of MRP2 band intensity to β-actin band intensity [4]: 0.72

shRNA/MRP2 #7: interfering RNA to MRP2, SEQ ID NO: 21, lentivirally transduced into C2BBe1 cells; clone #7 (CCGGCCATAGCTTCATTCCTGAGTACTCGAGTACTCAGGAATGAAGCTATGGTTTTTG; listed as Homo Sapiens)
Percent decrease in ratio compared to control [4]: 19.53% | Ratio of MRP2 band intensity to β-actin band intensity [4]: 0.54

shRNA/P-gp #83: shRNA to human P-gp, SEQ ID NO: 1, lentivirally transduced into C2BBe1 cells; clone #83 (CCGGCCGAACACATTGGAAGGAAATCTCGAGATTTCCTTCCAATGTGTTCGGTTTTTG; listed as Homo Sapiens)
P-gp mRNA expression relative to control C2BBe1 cells [5]: significantly reduced | P-gp function by intracellular calcein fluorescence ([3]; transduced C2BBe1 cells vs Un-KD): significantly decreased
